In patent US20100022778A1, “PROCESS FOR PRODUCTION OF SULFINYLBENZIMIDAZOLE COMPOUNDS OR SALTS THEREOF” (priority 2006, published 2010):

Tested on: gastric acid secretion in dogs having chronic gastric fistula
Assay: Gastric acid secretion inhibiting effect in dogs having chronic gastric fistula (histamine-stimulated)
Assay type: in vivo
Conditions: dog, histamine i.v.; for Gastric Acid Secretion Inhibiting Action (%): first day, 1 h 40 min to 2 h after administration; for Gastric Acid Secretion Inhibiting Persistence (%): second day (24 hours after administration)
Procedure: Using large dogs (body weight approximately 14 to 19 kg) having a chronic gastric fistula, the gastric acid secretion inhibiting action and gastric acid secretion inhibiting action persistence of test compounds of the Examples was investigated. The experiment was carried out over 2 days. On the first day, gastric juice was collected every 20 minutes under conditions of intravenously administering histamine (50 or 75 μg/kg/h) continuously for 3 hours. 1 Hour after commencing the histamine administration, the test compound suspended or dissolved in a 0.5% methylcellulose solution was administered at a volume of 0.1 ml/kg via an indwelling catheter in the duodenum. The gastric acid secretion inhibiting action of the test compound was then investigated over the subsequent 2 hours. On the second day (24 hours after the administration of the test compound), gastric juice was collected every 20 minutes under conditions of intravenously administering histamine continuously for 2 hours, and the gastric acid secretion inhibiting action persistence was investigated. After measuring the amount of gastric juice, a 0.5 ml sample of the gastric juice was taken, and neutralization titration was carried out to a pH of 7.0 with a 0.04 mol/l sodium hydroxide solution so as to measure the acid concentration. The acid concentration was multiplied by the amount of gastric juice so as to determine the gastric acid output. The gastric acid secretion inhibiting action was evaluated as the gastric acid secretion suppression rate (%) on the first day. The gastric acid secretion inhibiting action (%) was calculated using the following formula. In the case of 2 or more dogs, the mean over all of the dogs was calculated and is shown.
Gastric acid secretion inhibiting action (%)=(A−B)/A×100
[A] Gastric acid output over 20 minutes from 40 minutes to 1 hour after commencement of histamine administration [B] Gastric acid output over 20 minutes from 1 hour 40 minutes to 2 hours after administration of test compound
The gastric acid secretion inhibiting action persistence was evaluated as the gastric acid secretion suppression rate (%) on the second day. The gastric acid secretion inhibiting action persistence (%) was calculated using the following formula.
Gastric acid secretion inhibiting action persistence (%)=(C−D)/C×100
[C] Total gastric acid output from commencement of histamine administration on first day to 1 hour thereafter [D] Total gastric acid output from commencement of histamine administration on second day to 1 hour thereafter

[1] = 0.4 mg/kg i.d., mean of 10 dogs

`Cc1cnc(C[S+]([O-])c2nc3ccccc3[n-]2)c(C)c1OCC1COC(C)(C)OC1.[Na+]` (stereo not drawn) [Compound X, Sodium Salt of Optical Isomer Having Short Retention Time of 2-[[[4-(2,2-dimethyl-1,3-dioxan-5-yl)methoxy-3,5-dimethylpyridin-2-yl]methyl]sulfinyl]-1H-benzimidazole] was tested, and the “Gastric Acid Secretion Inhibiting Action (%)” value (0.1 mg/kg i.d., mean of 4 dogs) was 8%, the “Gastric Acid Secretion Inhibiting Persistence (%)” value (0.1 mg/kg i.d., mean of 4 dogs) was 6% and the “Gastric Acid Secretion Inhibiting Action (%)” value (0.2 mg/kg i.d., mean of 4 dogs) was 65%. For the same compound, the “Gastric Acid Secretion Inhibiting Persistence (%)” value (0.2 mg/kg i.d., mean of 4 dogs) was 46%, the “Gastric Acid Secretion Inhibiting Action (%)” value [1] was 97% and the “Gastric Acid Secretion Inhibiting Persistence (%)” value [1] was 77%. For the same compound, the “Gastric Acid Secretion Inhibiting Action (%)” value (0.8 mg/kg i.d., mean of 8 dogs) was 100% and the “Gastric Acid Secretion Inhibiting Persistence (%)” value (0.8 mg/kg i.d., mean of 8 dogs) was 89%.
